Drawing on PubChem BioAssay (NCI), this text covers TGI for 12 compounds.

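Tested at 5 concentrations; 48 h exposure; 96-well plates; endpoints linearly interpolated, else capped at highest concentration. TGI: total growth inhibition.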

Common to all, as to experiment: growth of human tumour cells (NCI), 48 h
Assay [1] has as its system 786-0 renal.
For assay [2], the system named is A498 renal.
In assay [3] the test system is CCRF-CEM leukemia.
The subject of assay [4] is EKVX NSCLC.
For assay [5], the system named is HCT-15 colon.
The subject of assay [6] is K-562 leukemia.
Assay [7] concerns OVCAR-5 ovarian.
Assay [8] deals with SF-539 CNS.
For assay [9], the system named is SK-MEL-2 melanoma.
In assay [10] the test system is SN12C renal.
Assay [11] concerns SNB-19 CNS.
Assay [12] deals with SR leukemia.
Assay [13] has as its system U251 CNS.

For `CCOC(=O)c1nc2cc(C(F)(F)F)ccc2nc1Oc1ccc(C(=O)OC)cc1`, the TGI in assay [1], in assay [2], in assay [3], in [4], in assay [5] and in assay [6] was above 100 µM throughout. For the same compound, the TGI in assay [7], in [8], in [9], in [10], in assay [11] and in assay [12] was above 100 µM throughout. The compound also showed a TGI in [13] above 100 µM.

With `CN(C)c1ccc(/C=C2\N=C(c3ccccc3)N(/N=C3\C(=O)Nc4ccccc43)C2=O)cc1`, the TGI in assay [1], in assay [2], in assay [3], in [4], in assay [5] and in [6] was above 100 µM in each case. For the same compound, the TGI in [7], in assay [8], in assay [9], in assay [10], in [11] and in [12] was above 100 µM throughout. In assay [13], this compound showed a TGI above 100 µM.

Consider `CC(C)N(C(=O)c1ccc(NCc2cc(O)ccc2O)cc1)C(C)C`, for which the TGI in assay [1] was 26.6 µM; in [2] it was 62.2 µM; in assay [3], above 100 µM; in assay [4], 28.6 µM; in assay [5] it was 33.6 µM; in [6], above 100 µM. Moreover, the TGI in assay [7] was 43.8 µM; in [8], 34 µM; in assay [9], 57.9 µM; in assay [10], 49 µM; in assay [11] it was 58.6 µM; in assay [12] it was above 100 µM. The compound also had a TGI in assay [13] of 32.6 µM.

With `N#Cc1nc(NC(=O)c2ccccc2)sc1N`, the TGI in assay [1], in [2], in assay [3], in [4], in assay [5] and in [6] was above 10 µM each time. The TGI in assay [7], in assay [8], in assay [9], in assay [10], in assay [11] and in assay [12] was above 10 µM throughout. Moreover, the TGI in assay [13] was above 10 µM.

Take `CCCCCCCCCCCCCCC[C@@H](O)C[N+](C)(C)CCO`: the TGI was 3.07 µM in assay [1]; above 100 µM in assay [2]; 11.5 µM in assay [3]; 37.4 µM in assay [4]; 14 µM in assay [5]; above 100 µM in assay [6]. Moreover, the TGI in assay [7] was 11.4 µM; in [8] it was 21.8 µM; in [9], 44.3 µM; in assay [10] it was 50.8 µM; in [11] it was 3.81 µM; in assay [12], above 23.6 µM. In assay [13], this compound displayed a TGI of 2.59 µM.

`O=C1c2ccccc2-n2c1nc1cc(Cl)ccc1c2=O`: the TGI in [1] was above 100 µM; in [2] it was above 100 µM; in [3], 9.2 µM; in assay [4], above 100 µM; in assay [5], above 100 µM; in [6], above 100 µM. Moreover, the TGI in [7], in assay [8], in assay [9], in [10], in [11] and in [12] was above 100 µM throughout. In assay [13], this compound displayed a TGI above 100 µM.

Turning to `COC1CC(n2ccc(=O)[nH]c2=O)OC1CO` (stereo unspecified), the TGI in assay [1], in [2], in assay [3], in assay [4], in assay [5] and in [6] was above 100 µM each time. The TGI in assay [7], in assay [8], in assay [9], in [10], in [11] and in assay [12] was above 100 µM each time. In assay [13], this compound yielded a TGI above 100 µM.

As to `COc1cc2c(cc1OC)C1(c3ccccc3)ON=C(c3ccccc3)N1CS2` (stereo unspecified), the TGI in assay [1], in assay [2], in [3], in [4], in [5] and in assay [6] was above 100 µM throughout. Further, the TGI in [7], in assay [8], in assay [9], in [10], in assay [11] and in assay [12] was above 100 µM throughout. Further, in assay [13], the TGI was above 100 µM.

`Nc1nc(Sc2ccc([N+](=O)[O-])cn2)c2[nH]cnc2n1`: the TGI was above 52.8 µM in [1]; 47.8 µM in assay [2]; above 41.5 µM in assay [3]; 50.2 µM in assay [4]; above 73.3 µM in assay [5]; above 100 µM in assay [6]. The TGI in assay [7] is above 100 µM; in assay [8], above 100 µM; in assay [9], 10.2 µM; in [10] it was 29.4 µM; in assay [11] it was 72.1 µM; in [12] it was above 100 µM. This compound displayed a TGI in assay [13] above 64.3 µM.

Consider `COC(=O)c1c2c(cc3c1CC1(C3)Cc3ccc4c(c3C1=O)CCC4)CCC2` (stereo unspecified), for which the TGI was above 56.1 µM in assay [1]; above 49.7 µM in assay [2]; above 81.8 µM in assay [3]; above 100 µM in assay [4]; above 100 µM in [5]; above 100 µM in assay [6]. For the same compound, the TGI in [7] was above 100 µM; in assay [8], 9.36 µM; in assay [9] it was 27 µM; in assay [10] it was above 100 µM; in assay [11], 62.1 µM; in [12] it was above 21.9 µM. The TGI in assay [13] was above 94.3 µM.

As for `CSc1n[nH]c2n[nH]c(C)c12`, the TGI in assay [1], in assay [2], in [3], in assay [4], in [5] and in assay [6] was above 100 µM throughout. The TGI in assay [7], in [8], in [9], in [10], in [11] and in assay [12] was above 100 µM in each case. In assay [13], this compound came in with a TGI above 100 µM.

On to `CC(=O)NC(CCCOC(C)=O)C(=O)NC(CCCOC(C)=O)C(=O)NC(CCCOC(C)=O)C(=O)NC(Cc1ccc([N+](=O)[O-])cc1)C(=O)NCC(=O)OCc1ccccc1` (stereo unspecified), for which the TGI in [1], in assay [2], in [3], in assay [4], in assay [5] and in assay [6] was above 100 µM in each case. The TGI in assay [7], in assay [8], in assay [9], in [10], in assay [11] and in [12] was above 100 µM each time. This compound also showed a TGI in [13] above 100 µM.
